# Reference: US20230159489A1, “PHD INHIBITOR COMPOUNDS, COMPOSITIONS, AND USE” (Akebia Therapeutics, Inc., priority 2020, published 2023)
# How the values were obtained:
# full-length human PHD1 = biological target: T1, full-length human PHD1 (Homo sapiens, UniProt Q96KS0); experiment: TR-FRET assay, enzymatic IC50 against PHD1; assay type: biochemical; further: 15 nM PHD1
# T1 construct: FLAG (N); purchased Active Motif 81064; host or cells: baculovirus expression system
# Excerpt: PHD1 was expressed in a baculovirus expression system as the full-length protein (NCBI accession number NP_542770.2) with an N-terminal FLAG tag (molecular weight 44.9 kDa).
# full-length human PHD3 = biological target: T2, full-length human PHD3 (Homo sapiens, UniProt Q9H6Z9); experiment: TR-FRET assay, enzymatic IC50 against PHD3; assay type: biochemical; further: 35 nM PHD3
# T2 construct: 6-His (N); purchased Active Motif 81033; host or cells: E. coli
# Excerpt: Recombinant human PHD3 protein (molecular weight 31.1 kDa) was purchased from Active Motif (Carlsbad, Calif., USA). It was expressed in E. coli as the full-length protein (NCBI accession number NP_071356.1) with an N-terminal 6-His tag (catalog #81033, Lot #24417001).
# full-length human PHD2 = full-length human PHD2 (Homo sapiens, UniProt Q9GZT9); experiment: TR-FRET assay, enzymatic IC50 against PHD2
# Sequence of full-length human PHD2 (Q9GZT9 whole entry): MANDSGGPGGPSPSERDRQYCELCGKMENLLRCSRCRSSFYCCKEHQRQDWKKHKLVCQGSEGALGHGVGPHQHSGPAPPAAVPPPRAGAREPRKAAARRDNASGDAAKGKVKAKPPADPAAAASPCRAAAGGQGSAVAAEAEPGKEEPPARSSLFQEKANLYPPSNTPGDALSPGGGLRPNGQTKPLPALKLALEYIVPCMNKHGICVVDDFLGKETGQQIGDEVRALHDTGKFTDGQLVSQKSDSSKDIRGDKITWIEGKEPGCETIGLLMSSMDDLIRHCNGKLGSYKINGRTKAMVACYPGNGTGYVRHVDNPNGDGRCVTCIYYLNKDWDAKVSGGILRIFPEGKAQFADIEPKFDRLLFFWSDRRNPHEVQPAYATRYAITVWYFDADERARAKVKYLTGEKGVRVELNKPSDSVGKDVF
# T1 sequence (Q96KS0 whole entry): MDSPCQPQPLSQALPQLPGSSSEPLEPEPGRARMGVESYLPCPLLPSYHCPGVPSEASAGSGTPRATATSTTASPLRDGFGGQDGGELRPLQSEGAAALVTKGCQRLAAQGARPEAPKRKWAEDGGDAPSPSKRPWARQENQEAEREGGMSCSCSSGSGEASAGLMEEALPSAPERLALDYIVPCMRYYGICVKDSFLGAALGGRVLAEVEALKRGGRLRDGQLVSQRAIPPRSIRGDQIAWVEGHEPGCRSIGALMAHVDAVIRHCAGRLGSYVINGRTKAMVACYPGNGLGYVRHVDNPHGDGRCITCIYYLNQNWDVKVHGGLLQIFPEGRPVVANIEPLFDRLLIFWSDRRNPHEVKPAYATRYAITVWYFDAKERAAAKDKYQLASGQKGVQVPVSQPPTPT
# T2 sequence (Q9H6Z9 whole entry): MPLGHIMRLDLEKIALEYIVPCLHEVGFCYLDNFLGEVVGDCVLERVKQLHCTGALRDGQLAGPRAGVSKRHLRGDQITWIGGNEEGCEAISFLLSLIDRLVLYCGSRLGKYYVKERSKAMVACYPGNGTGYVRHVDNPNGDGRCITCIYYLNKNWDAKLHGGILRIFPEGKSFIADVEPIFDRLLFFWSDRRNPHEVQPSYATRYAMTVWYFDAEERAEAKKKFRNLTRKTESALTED
IC50 (full-length human PHD1),IC50 (full-length human PHD3),IC50 (full-length human PHD2),SMILES
< 100 nM,100 to 1000 nM,< 100 nM,"Cc1cc(-n2nc(C)c(-c3ccc(C#N)cc3)c2O)ncc1P(C)(C)=O [Compound 36, 4-(1-(5-(dimethylphosphoryl)-4-methylpyridin-2-yl)-5-hydroxy-3-methyl-1H-pyrazol-4-yl)benzonitrile]"
< 100 nM,< 100 nM,< 100 nM,"Cc1nn(-c2ccc(NS(=O)(=O)CC(=O)O)cn2)c(O)c1-c1ccc(C#N)cc1 [Compound 55, 2-(N-(6-(4-(4-cyanophenyl)-5-hydroxy-3-methyl-1H-pyrazol-1-yl)pyridin-3-yl)sulfamoyl)acetic acid]"
< 100 nM,100 to 1000 nM,< 100 nM,"Cc1nn(-c2ccc(N3CCCC3=O)cn2)c(O)c1-c1ccc(C#N)cc1 [Compound 7, 4-(5-hydroxy-3-methyl-1-(5-(2-oxopyrrolidin-1-yl)pyridin-2-yl)-1H-pyrazol-4-yl)benzonitrile]"
< 100 nM,1000 to 10000 nM,< 100 nM,"CCc1nn(-c2ccc(S(C)(=O)=O)cn2)c(O)c1-c1ccc(C#N)cc1 [Compound 4, 4-(3-ethyl-5-hydroxy-1-(5-(methylsulfonyl)pyridin-2-yl)-1H-pyrazol-4-yl)benzonitrile]"
< 100 nM,< 100 nM,< 100 nM,"Cc1cc(C#N)ccc1-c1c(C)nn(-c2ccc(S(C)(=O)=O)cn2)c1O [Compound 2, 4-(5-hydroxy-3-methyl-1-(5-(methylsulfonyl)pyridin-2-yl)-1H-pyrazol-4-yl)-3-methylbenzonitrile]"
< 100 nM,< 100 nM,< 100 nM,"CN=S(C)(=O)c1ccc(-n2nc(C)c(-c3ccc(C#N)cc3)c2O)nc1 (stereo not drawn) [Compound 15, 4-(1-(5-(N,S-dimethylsulfonimidoyl)pyridin-2-yl)-5-hydroxy-3-methyl-1H-pyrazol-4-yl)benzonitrile]"
< 100 nM,< 100 nM,< 100 nM,"Cc1nn(-c2ccc(S(C)(=O)=O)cn2)c(O)c1-c1ccc(C#N)cc1 [Compound 3, 4-(5-hydroxy-3-methyl-1-(5-(methylsulfonyl)pyridin-2-yl)-1H-pyrazol-4-yl)benzonitrile]"
